Results as given in ChEMBL document CHEMBL1201862, “PubChem BioAssay data set” (2004).
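These data come from cells grown in 96-well plates and exposed to compound for 48 hours at five concentrations. GI50 marks 50% less growth.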 Calls of active or inactive are those of the source. Rule as the data show it: active = GI50 up to about 1.1 µM and inactive = higher.

Experiments:
Assay in all cases: inhibition of tumour cell growth, NCI panel, 48 h
M14 = tested on: M14
Hs-578T = tested on: Hs-578T
SK-MEL-2 = tested on: SK-MEL-2
CCRF-CEM = tested on: CCRF-CEM
K562 = tested on: K562
PC-3 = tested on: PC-3
OVCAR-3 = tested on: OVCAR-3
CAKI-1 = tested on: CAKI-1
SK-MEL-28 = tested on: SK-MEL-28
MDA-MB-435 = tested on: MDA-MB-435
IGROV-1 = tested on: IGROV-1
U-251 = tested on: U-251
HCT-15 = tested on: HCT-15
SR = tested on: SR
SW-620 = tested on: SW-620
HOP-62 = tested on: HOP-62
EKVX = tested on: EKVX
SF-295 = tested on: SF-295
OVCAR-8 = tested on: OVCAR-8
HT-29 = tested on: HT-29

Row | Structure (SMILES) | GI50 (M14) | GI50 (Hs-578T) | GI50 (SK-MEL-2) | GI50 (CCRF-CEM) | GI50 (K562) | GI50 (PC-3) | GI50 (OVCAR-3) | GI50 (CAKI-1) | GI50 (SK-MEL-28) | GI50 (MDA-MB-435) | GI50 (IGROV-1) | GI50 (U-251) | GI50 (HCT-15) [µM] | GI50 (SR) | GI50 (SW-620) | GI50 (HOP-62) | GI50 (EKVX) | GI50 (SF-295) | GI50 (OVCAR-8) | GI50 (HT-29)
1 | COC1=CC(=O)c2c(ccc3ncnc(N)c23)C1=O | 1.88 µM (inactive) | 3.3 µM (inactive) | 3.03 µM (inactive) | 0.665 µM (active) | 0.659 µM (active) | 2.32 µM (inactive) | 1.48 µM (inactive) | 1.36 µM (inactive) | 2.36 µM (inactive) | 0.233 µM (active) | 1.73 µM (inactive) | 1.74 µM (inactive) | 1.99 | 0.164 µM (active) | 1.93 µM (inactive) | 3.56 µM (inactive) | 2.04 µM (inactive) | 3.62 µM (inactive) | 2.11 µM (inactive) | 2.1 µM (inactive)
2 | N=C(N)n1nc2c(c1O)CCCC2 | > 100 µM (inactive) | > 100 µM (inactive) | > 100 µM (inactive) | > 100 µM (inactive) | > 100 µM (inactive) | > 100 µM (inactive) | > 100 µM (inactive) | > 100 µM (inactive) | > 100 µM (inactive) | > 100 µM (inactive) | 65.2 µM (inactive) | > 100 µM (inactive) | > 100 | > 100 µM (inactive) | > 100 µM (inactive) | > 100 µM (inactive) | > 100 µM (inactive) | > 100 µM (inactive) | > 100 µM (inactive) | > 100 µM (inactive)
3 | CCCCNC(=O)c1cc2c(cc1Cl)Sc1nccn1S2(=O)=O | > 100 µM (inactive) | 57.3 µM (inactive) | 70 µM (inactive) | 77.6 µM (inactive) | 78.5 µM (inactive) | 55.2 µM (inactive) | 34 µM (inactive) | 18.7 µM (inactive) | > 100 µM (inactive) | 87.1 µM (inactive) | > 100 µM (inactive) | 54.8 µM (inactive) | 92.9 | 57.3 µM (inactive) | > 100 µM (inactive) | 24.3 µM (inactive) | 70.8 µM (inactive) | > 100 µM (inactive) | > 100 µM (inactive) | > 100 µM (inactive)
4 | COC(=O)C1CCC(=O)N1C(c1ccc2c(c1)OCO2)c1ccc2c(c1)OCO2 (stereo not given) | > 100 µM (inactive) | > 100 µM (inactive) | > 100 µM (inactive) | > 100 µM (inactive) | > 100 µM (inactive) | > 100 µM (inactive) | > 100 µM (inactive) | > 100 µM (inactive) | > 100 µM (inactive) | > 100 µM (inactive) | > 100 µM (inactive) | > 100 µM (inactive) | > 100 | > 100 µM (inactive) | > 100 µM (inactive) | > 100 µM (inactive) | > 100 µM (inactive) | > 100 µM (inactive) | > 100 µM (inactive) | > 100 µM (inactive)
5 | CCc1c(CN)c(CC)c(CNC2=NCCN2)c(CC)c1CNC1=NCCN1 | > 100 µM (inactive) | > 100 µM (inactive) | > 100 µM (inactive) | > 100 µM (inactive) | > 100 µM (inactive) | > 100 µM (inactive) | > 100 µM (inactive) | > 100 µM (inactive) | > 100 µM (inactive) | > 100 µM (inactive) | > 100 µM (inactive) | > 100 µM (inactive) | > 100 | > 100 µM (inactive) | > 100 µM (inactive) | > 100 µM (inactive) | > 100 µM (inactive) | > 100 µM (inactive) | > 100 µM (inactive) | > 100 µM (inactive)
6 | CCCCCCNCCc1c[nH]cn1 | > 100 µM (inactive) | > 100 µM (inactive) | > 100 µM (inactive) | > 100 µM (inactive) | > 100 µM (inactive) | > 100 µM (inactive) | > 100 µM (inactive) | > 100 µM (inactive) | > 100 µM (inactive) | > 100 µM (inactive) | > 100 µM (inactive) | > 100 µM (inactive) | > 100 | > 100 µM (inactive) | > 100 µM (inactive) | > 100 µM (inactive) | > 100 µM (inactive) | > 100 µM (inactive) | > 100 µM (inactive) | > 100 µM (inactive)
